Reference: patent US7138411B2, “Substituted benzopyran derivatives for the treatment of inflammation” (G.D. Searle & Co., priority 1997, dated 2006)

How the values were obtained:
COX-2 [1] = target: T1, COX-2 (UniProt P35354); assay: Fast assay for COX-2 activity (PGE2 ELISA); format: biochemical, human or murine; conditions: fast assay: 10 min pre-incubation at 25° C., reaction stopped after two minutes, pH 7.5
T1 sequence (P35354 1-604): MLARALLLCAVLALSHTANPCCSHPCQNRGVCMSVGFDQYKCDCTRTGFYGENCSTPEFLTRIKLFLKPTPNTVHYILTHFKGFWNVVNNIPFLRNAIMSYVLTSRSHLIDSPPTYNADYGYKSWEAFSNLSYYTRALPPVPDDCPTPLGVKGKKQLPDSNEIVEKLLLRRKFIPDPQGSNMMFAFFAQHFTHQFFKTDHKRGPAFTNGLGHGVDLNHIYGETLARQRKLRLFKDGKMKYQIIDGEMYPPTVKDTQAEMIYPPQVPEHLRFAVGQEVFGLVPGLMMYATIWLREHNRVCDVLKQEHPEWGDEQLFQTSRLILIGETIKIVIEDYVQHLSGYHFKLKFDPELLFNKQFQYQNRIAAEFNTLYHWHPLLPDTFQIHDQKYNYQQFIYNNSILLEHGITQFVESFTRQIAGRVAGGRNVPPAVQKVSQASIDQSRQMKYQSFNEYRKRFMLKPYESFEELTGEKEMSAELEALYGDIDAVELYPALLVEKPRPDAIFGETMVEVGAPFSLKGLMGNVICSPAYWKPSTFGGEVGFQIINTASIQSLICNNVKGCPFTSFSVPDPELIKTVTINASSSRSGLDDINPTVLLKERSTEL
Description: The homogenate was centrifuged at 10,000×G for 30 minutes, and the resultant supernatant was stored at −80° C. before being assayed for COX activity.
Fast Assay for COX-1 and COX-2 Activity
COX activity was assayed as PGE2 formed/μg protein/time using an ELISA to detect the prostaglandin released. CHAPS-solubilized insect cell membranes containing the appropriate COX enzyme were incubated in a potassium phosphate buffer (0.05 M Potassium phosphate, pH 7.5, 2 μM phenol,1 μM heme, 300 μM epinephrine) with the addition of 20 μl of 100 μM arachidonic acid (10 μM). […] The PGE2 formed was measured by standard ELISA technology (Cayman Chemical).

COX-2 [2] = target: T1, COX-2; assay: Assay for COX-2 activity (PGE2 ELISA); conditions: read-out: COX-2 IC50; 10–20 minutes pre-incubation, reaction stopped after ten minutes, pH 8.0
COX-1 = COX-1 (UniProt P23219); assay: Assay for COX-1 activity (PGE2 ELISA); conditions: read-out: COX-1 IC50; 10–20 minutes pre-incubation, reaction stopped after ten minutes, pH 8.0

| SMILES | IC50 (COX-2 [1]) [nM] | melting point | IC50 (COX-2 [2]) [nM] | IC50 (COX-1) [µM] |
| --- | --- | --- | --- | --- |
| O=C(O)C1=Cc2cc(Cl)cc(C#Cc3ccccc3)c2OC1C(F)(F)F (centres unmarked) [Example 120, 6-Chloro-8-(phenylethynyl)-2-(trifluoromethyl)-2H-1-benzopyran-3-carboxylic acid] | < 100 | 190.1 to 192.1 °C | < 100 | 33 |
| O=C(O)C1=Cc2cc(Cl)cc(-c3ccc(Cl)cc3)c2OC1C(F)(F)F (centres unmarked) [Example 125, 6-Chloro-8-(4-chlorophenyl)-2-(trifluoromethyl)-2H-1-benzopyran-3-carboxylic acid] | < 100 | 205.5 to 207.3 °C | < 100 | < 0.1 |
| O=C(O)C1=Cc2cc(Cl)cc(-c3ccccc3)c2OC1C(F)(F)F (centres unmarked) [Example 129, 6-Chloro-8-phenyl-2-(trifluoromethyl)-2H-1-benzopyran-3-carboxylic acid] | 200 | 196.3 to 197.7 °C | < 100 | 0.3 |
| O=C(O)C1=Cc2cc(-c3ccc(Br)cc3)ccc2OC1C(F)(F)F (centres unmarked) [Example 138, 6-(4-Bromophenyl)-2-(trifluoromethyl)-2H-1-benzopyran-3-carboxylic acid] | 300 | 215 to 216 °C | < 100 | 11.1 |
| O=C(O)C1=Cc2cc(Cl)c(Cl)cc2SC1C(F)(F)F (centres unmarked) [Example 154, 6,7-Dichloro-2-(trifluoromethyl)-2H-1-benzothiopyran-3-carboxylic acid] | 500 | 262.5 to 263.5 °C | < 100 | 37 |
| O=C(O)C1=Cc2cc(SC(F)(F)F)ccc2SC1C(F)(F)F (centres unmarked) [Example 155, 2-(Trifluoromethyl)-6-[(trifluoromethyl)thio]-2H-1-benzothiopyran-3-carboxylic acid] | < 100 | 129.3 to 132.4 °C | < 100 | < 0.1 |
| O=C(O)C1=Cc2ccc(Oc3ccccc3)cc2OC1C(F)(F)F (centres unmarked) [Example 176, 7-Phenoxy-2-(trifluoromethyl)-2H-1-benzopyran-3-carboxylic acid] | < 100 | 180 to 181 °C | 2000 | 3.3 |
| CC(C)(CO)c1cc2c(cc1Cl)C=C(C(=O)O)C(C(F)(F)F)O2 (centres unmarked) [Example 178, 6-Chloro-7-(2-hydroxy-1,1-dimethylethyl)-2-(trifluoromethyl)-2H-1-benzopyran-3-carboxylic acid] | 8400 | 203.8 to 205.4 °C | 14700 | > 100 |
| CC(C)(CO)c1ccc2c(c1)OC(C(F)(F)F)C(C(=O)O)=C2 (centres unmarked) [Example 179, 7-(2-Hydroxy-1,1-dimethylethyl)-2-(trifluoromethyl)-2H-1-benzopyran-3-carboxylic acid] | 15600 | 228.9 to 230 °C | 16000 | > 100 |
| O=C(O)C1=Cc2cc(Cl)c(I)cc2OC1C(F)(F)F (centres unmarked) [Example 180, 6-Chloro-7-iodo-2-(trifluoromethyl)-2H-1-benzopyran-3-carboxylic acid] | < 100 | 224.9 to 225.9 °C | < 100 | > 100 |
| C#Cc1cc2c(cc1Cl)C=C(C(=O)O)C(C(F)(F)F)O2 (centres unmarked) [Example 181, 6-Chloro-7-ethynyl-2-(trifluoromethyl)-2H-1-benzopyran-3-carboxylic acid] | 1500 | > 300 °C | > 100000 | > 100 |
| C=Cc1cc2c(cc1Cl)C=C(C(=O)O)C(C(F)(F)F)O2 (centres unmarked) [Example 182, 6-Chloro-7-ethenyl-2-(trifluoromethyl)-2H-1-benzopyran-3-carboxylic acid] | < 100 | > 200 °C (dec.) | > 100000 | > 100 |
| COc1ccc(Oc2cc3c(cc2Cl)C=C(C(=O)O)C(C(F)(F)F)O3)cc1 (centres unmarked) [Example 183, 6-Chloro-7-(4-methoxyphenoxy)-2-(trifluoromethyl)-2H-1-benzopyran-3-carboxylic acid] | < 100 | 213.2 to 214.3 °C | < 100 | 4.1 |
| O=C(O)C1=Cc2cc(Cl)c(Oc3ccc(Cl)cc3)cc2OC1C(F)(F)F (centres unmarked) [Example 184, 6-Chloro-7-(4-chlorophenoxy)-2-(trifluoromethyl)-2H-1-benzopyran-3-carboxylic acid] | < 100 | 205.4 to 206.5 °C | < 100 | 1.3 |
| N#Cc1ccc(Oc2cc3c(cc2Cl)C=C(C(=O)O)C(C(F)(F)F)O3)cc1 (centres unmarked) [Example 185, 6-Chloro-7-(4-cyanophenoxy)-2-(trifluoromethyl)-2H-1-benzopyran-3-carboxylic acid] | < 100 | 212.5 to 215.7 °C | < 100 | > 100 |
| O=C(O)C1=Cc2cc(Cl)c(Oc3ccc(C(F)(F)F)cc3)cc2OC1C(F)(F)F (centres unmarked) [Example 186, 6-Chloro-2-(trifluoromethyl)-7-[4-(trifluoromethyl)phenoxy]-2H-1-beazopyran-3-carboxylic acid] | < 100 | 230.9 to 232 °C | 3400 | 32.8 |
| O=C(O)C1=Cc2cc(Cl)c(Oc3ccc(OC(F)(F)F)cc3)cc2OC1C(F)(F)F (centres unmarked) [Example 187, 6-Chloro-2-(trifluoromethyl)-7-[4-(trifluoromethoxy)phenoxy]-2H-1-benzopyran-3-carboxlic acid] | 2900 | 198 to 199.2 °C | 33700 | > 100 |
| O=C(O)C1=Cc2cc(Cl)c(Oc3ccc4cc(Br)ccc4c3)cc2OC1C(F)(F)F (centres unmarked) [Example 189, 7-[(6-Bromo-2-naphthalenyl)oxy]-6-chloro-2-(trifluoromethyl)-2H-1-benzopyran-3-carboxylic acid] | < 100 | 252.6 to 254.8 °C | 1200 | 44.8 |
| Cc1cccc(C)c1Oc1cc2c(cc1Cl)C=C(C(=O)O)C(C(F)(F)F)O2 (centres unmarked) [Example 190, 6-Chloro-7-(2,6-dimethylphenoxy)-2-(trifluoromethyl)-2H-1-benzopyran-3-carboxylic acid] | 500 | 252.7 to 258.6 °C | 500 | 37.4 |
| COc1ccc(Sc2cc3c(cc2Cl)C=C(C(=O)O)C(C(F)(F)F)O3)cc1 (centres unmarked) [Example 191, 6-Chloro-7-[(4-methoxyphenyl)thio]-2-(trifluoromethyl)-2H-1-benzopyran-3-carboxylic acid] | < 100 | 239.4 to 242.3 °C | 42200 | > 100 |
| O=C(O)C1=Cc2cc(Cl)c(Sc3ccc(Cl)cc3)cc2OC1C(F)(F)F (centres unmarked) [Example 192, 6-Chloro-7-[(4-chlorophenyl)thio]-2-(trifluoromethyl)-2H-1-benzopyran-3-carboxylic acid] | < 100 | 251.7 to 253.3 °C | 1400 | 12.3 |
| O=C(O)C1=Cc2cc(Cl)c([S+]([O-])c3ccc(Cl)cc3)cc2OC1C(F)(F)F (centres unmarked) [Example 193, 6-Chloro-7-[(4-chlorophenyl)sulfinyl]-2-(trifluoromethyl)-2H-1-benzopyran-3-carboxylic acid] | 1200 | 213.8 to 217.4 °C | > 100000 | > 100 |
| O=C(O)C1=Cc2cc(Cl)c(Sc3ccccc3)cc2OC1C(F)(F)F (centres unmarked) [Example 195, 6-Chloro-7-(phenylthio)-2-(trifluoromethyl)-2H-1-benzopyran-3-carboxylic acid] | < 100 | 271.7 to 274.4 °C | < 100 | 2.6 |
| O=C(O)C1=Cc2cc(Cl)c(Oc3cccc(Cl)c3)cc2OC1C(F)(F)F (centres unmarked) [Example 196, 6-Chloro-7-(3-chlorophenoxy)-2-(trifluoromethyl)-2H-1-benzopyran-3-carboxylic acid] | < 100 | 174.1 to 176.1 °C | 9500 | 30.3 |
| O=C(O)C1=Cc2cc(Cl)c(Oc3ccc(Cl)cc3Cl)cc2OC1C(F)(F)F (centres unmarked) [Example 197, 6-Chloro-7-(2,4-dichlorophenoxy)-2-(trifluoromethyl)-2H-1-benzopyran-3-carboxylic acid] | < 100 | 233 to 234 °C | < 100 | 0.4 |
| O=C(O)C1=Cc2cc(Cl)c(Oc3ccc(F)c(F)c3)cc2OC1C(F)(F)F (centres unmarked) [Example 198, 6-Chloro-7-(3,4-difluorophenoxy)-2-(trifluoromethyl)-2H-1-benzopyran-3-carboxylic acid] | < 100 | 191.9 to 193.1 °C | < 100 | 12.4 |
